pIC50: −log10 of the molar value.
Biological target: Tyrosine-protein kinase JAK3 (Homo sapiens) (UniProt P52333)
Experiment: JAK3 kinase inhibitors, dose response, biochemical, purified enzyme (AID 1224891)
Settings: recombinant JAK3 kinase domain, 32P-ATP radiometric

Sequence of Tyrosine-protein kinase JAK3 (Homo sapiens) (P52333 whole entry, looked up): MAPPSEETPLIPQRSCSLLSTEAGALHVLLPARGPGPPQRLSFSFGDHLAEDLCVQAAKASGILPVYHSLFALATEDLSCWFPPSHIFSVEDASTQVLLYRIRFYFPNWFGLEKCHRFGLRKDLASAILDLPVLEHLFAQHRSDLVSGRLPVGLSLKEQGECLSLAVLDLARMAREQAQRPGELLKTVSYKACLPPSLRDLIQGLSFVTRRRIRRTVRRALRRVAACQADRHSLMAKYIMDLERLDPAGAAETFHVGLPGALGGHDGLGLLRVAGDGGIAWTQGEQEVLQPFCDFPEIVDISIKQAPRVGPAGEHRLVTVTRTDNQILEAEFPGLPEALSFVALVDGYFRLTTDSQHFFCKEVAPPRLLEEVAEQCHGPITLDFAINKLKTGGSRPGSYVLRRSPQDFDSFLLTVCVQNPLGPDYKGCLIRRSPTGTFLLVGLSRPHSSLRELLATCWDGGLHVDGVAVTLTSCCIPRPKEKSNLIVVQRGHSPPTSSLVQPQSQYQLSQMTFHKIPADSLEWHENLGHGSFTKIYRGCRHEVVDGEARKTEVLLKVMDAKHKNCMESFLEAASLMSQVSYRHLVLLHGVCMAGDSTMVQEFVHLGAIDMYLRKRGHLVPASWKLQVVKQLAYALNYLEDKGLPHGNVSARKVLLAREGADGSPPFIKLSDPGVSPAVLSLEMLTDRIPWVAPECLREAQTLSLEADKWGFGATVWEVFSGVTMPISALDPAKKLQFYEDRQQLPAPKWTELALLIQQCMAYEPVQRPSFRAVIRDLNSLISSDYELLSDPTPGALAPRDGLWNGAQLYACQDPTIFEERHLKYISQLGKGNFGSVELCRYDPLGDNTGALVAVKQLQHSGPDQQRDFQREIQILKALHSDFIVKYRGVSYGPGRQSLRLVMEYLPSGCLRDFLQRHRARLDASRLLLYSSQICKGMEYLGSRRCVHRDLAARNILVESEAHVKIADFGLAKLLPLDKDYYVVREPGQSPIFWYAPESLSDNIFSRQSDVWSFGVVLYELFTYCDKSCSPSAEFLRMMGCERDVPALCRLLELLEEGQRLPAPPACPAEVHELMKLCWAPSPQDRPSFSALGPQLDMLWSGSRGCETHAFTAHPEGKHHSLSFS

SMILES: CCOC(=O)c1c[nH]c2ncnc(-c3cc(NC(=O)CC)ccc3F)c12
- pIC50: 5.72
